The subject of this data set is GENE-TOX genotoxicity assays, various organisms and cells. The data set can be described thus: GENE-TOX mutagenicity studies. The following applies: for call: Assay Type: In vivo carcinogenicity studies.
Setting [1] is: Species/Cell Type: Human lymphocytes, Assay Type: Sister-chromatid exchange (SCE) in vitro, Assay Code: SCL+, Evaluation Type: Evaluation B (Post-1980).
The mark [2] stands for this setting: Species/Cell Type: Human, Assay Type: Sister-chromatid exchange (SCE) in vitro, Assay Code: SC1+, Evaluation Type: Evaluation B (Post-1980).
Where [3] appears, read: Species/Cell Type: Nonhuman, Assay Code: CCG+, Evaluation Type: Evaluation A (Pre-1980).
Setting [4] is: Species/Cell Type: Saccharomyces cerevisiae, Assay Type: Mitotic recombination or gene conversion, Assay Code: YEC+, Evaluation Type: Evaluation A (Pre-1980).
Setting [5] is: Species/Cell Type: Salmonella typhimurium (one or more of the five standard strains: TA98, TA100, TA1535, TA1537, and TA1538), Assay Type: Histidine reverse gene mutation, Ames assay, Assay Code: SALT, Evaluation Type: Evaluation A (Pre-1980).
Setting [6] is: Species/Cell Type: Chinese hamster lung (V79) cells, Assay Type: Forward gene mutation at the HPRT or ouabain locus, Assay Code: V79+, Evaluation Type: Evaluation A (Pre-1980).
Setting [7] is: Species/Cell Type: Salmonella typhimurium (one or more of the five standard strains: TA98, TA100, TA1535, TA1537, and TA1538), Assay Type: Histidine reverse gene mutation, Ames assay, Assay Code: SAL+, Evaluation Type: Evaluation A (Pre-1980).
Where [8] appears, read: Species/Cell Type: Syrian hamster embryo (SA7/SHE) cells, Assay Type: Cell transformation, viral enhanced, Assay Code: CT7-, Evaluation Type: Evaluation A (Pre-1980).
The mark [9] stands for this setting: Species/Cell Type: Chinese hamster lung (V79) cells, Assay Type: Forward gene mutation at the HPRT or ouabain locus, Assay Code: V79-*, Activation: With metabolic activation, Evaluation Type: Evaluation A (Pre-1980).

Active and inactive are the calls of the source. No rule for the calls is given here.

These results are taken from PubChem BioAssay AID1259408 (Genetic Toxicology Data Bank (GENE-TOX), 2018).

In the case of `COP(N)(=O)SC` (centres undefined), the mutagenic call (Species/Cell Type: Nonhuman, Assay Type: Sister-chromatid exchange (SCE) in vitro, Assay Code: SC2T, Evaluation Type: Evaluation B (Post-1980)) is given as “no conclusion”.

On to `CNC(=O)Oc1cc(C)cc(C)c1`, for which the mutagenic call reads like this: (Species/Cell Type: Bacillus subtilis (H17 vs M45T), Assay Type: Rec-assay, spot test, DNA effects (bacterial DNA repair), Assay Code: REX-, Evaluation Type: Evaluation A (Pre-1980)) “inactive; negative”; (Species/Cell Type: Escherichia coli WP2, Assay Type: Tryptophan reverse gene mutation, Assay Code: WP2-, Evaluation Type: Evaluation A (Pre-1980)) “inactive; negative”.

For the molecule `Oc1ccccc1`, the mutagenic call is “active; positive” under setting [1]; “active; positive” under setting [2]; “no conclusion” (Species/Cell Type: Mammalian polychromatic erythrocytes, Assay Type: Micronucleus test, chromosome aberrations, Assay Code: MNTT, Evaluation Type: Evaluation B (Post-1980)); “inactive; negative” (Species/Cell Type: Neurospora crassa, Assay Type: Reverse gene mutation, Assay Code: NER-, Evaluation Type: Evaluation A (Pre-1980)).

On to `COc1c(OC)c(O)c2c(=O)c(OC)c(-c3ccc(O)c(O)c3)oc2c1OC`, for which the mutagenic call (Species/Cell Type: Mammalian polychromatic erythrocytes, Assay Type: Micronucleus test, chromosome aberrations, Assay Code: MNT+, Evaluation Type: Evaluation B (Post-1980)) is “active; positive”.

For `O=C1C2(Cl)C3(Cl)C4(Cl)C(Cl)(Cl)C5(Cl)C3(Cl)C1(Cl)C5(Cl)C24Cl` (centres undefined), the mutagenic call (Species/Cell Type: Human, Sex: Male, Assay Type: Sperm morphology, Assay Code: SPHT, Evaluation Type: Evaluation A (Pre-1980)) is “no conclusion”. For the same molecule, under setting [3], the call was “active; positive”.

With `Cc1cc(C2(c3ccc(O)c(C)c3)OC(=O)c3ccccc32)ccc1O`, under “Species/Cell Type: Allium cepa, Assay Type: Chromosome aberrations, Assay Code: ALC+, Evaluation Type: Evaluation A (Pre-1980)”, the mutagenic call was “active; positive”.

Take `Cc1cc2cc3cc(C)c(N)cc3nc2cc1N`: the mutagenic call is “active; positive” (Species/Cell Type: Mammalian cell culture, nonhuman, Assay Type: Micronucleus test in vitro, chromosome aberrations, Assay Code: MN&+, Evaluation Type: Evaluation A (Pre-1980)) and “active; positive” under setting [4].

For `c1ccc2cc3c(ccc4ccccc43)cc2c1`, the mutagenic call (Species/Cell Type: Chinese hamster lung (V79) cells, Assay Type: Forward gene mutation at the HPRT or ouabain locus, Assay Code: V79+*, Activation: With metabolic activation, Evaluation Type: Evaluation A (Pre-1980)) was “active; positive”; the mutagenic call (Species/Cell Type: Drosophila melanogaster, Assay Type: Sex-linked recessive lethal gene mutation, Assay Code: SRLT, Evaluation Type: Evaluation A (Pre-1980)) was “no conclusion”; the mutagenic call (Species/Cell Type: Escherichia coli polA (W3119 vs P3478), Assay Type: Rec-assay, DNA effects (bacterial DNA repair), Assay Code: RE1T, Evaluation Type: Evaluation A (Pre-1980)) was “no conclusion”; the mutagenic call (Species/Cell Type: Fischer rat embryo (RLV/1706) cells, Assay Type: Cell transformation, viral enhanced, Assay Code: CTR+, Evaluation Type: Evaluation A (Pre-1980)) is “active; positive”; the mutagenic call (Species/Cell Type: Human diploid fibroblasts, Assay Type: Unscheduled DNA synthesis (UDS) in vitro, DNA effects, Assay Code: UDHT, Evaluation Type: Evaluation A (Pre-1980)) is given as “no conclusion”; the mutagenic call (Species/Cell Type: Mouse (BALB/c-3T3) cells, Assay Type: Cell transformation, Assay Code: CTB-, Evaluation Type: Evaluation A (Pre-1980)) is “inactive; negative”. Moreover, the mutagenic call is, setting by setting: (Species/Cell Type: Mouse prostate cells, Assay Type: Cell transformation, Assay Code: CTM+, Evaluation Type: Evaluation A (Pre-1980)) “active; positive”; (Species/Cell Type: Nonhuman, Assay Type: Sister-chromatid exchange (SCE) in vitro, Assay Code: SC2+, Evaluation Type: Evaluation B (Post-1980)) “active; positive”; (Species/Cell Type: Nonhuman, Assay Type: Sister-chromatid exchange (SCE) in vivo, Assay Code: SC3+, Evaluation Type: Evaluation B (Post-1980)) “active; positive”; (Species/Cell Type: Nonhuman, Assay Type: Sister-chromatid exchange (SCE) in vivo, Assay Code: SC3T, Evaluation Type: Evaluation A (Pre-1980)) “no conclusion”; (Species/Cell Type: Rat primary hepatocytes, Assay Type: Unscheduled DNA synthesis (UDS) in vitro, DNA effects, Assay Code: UDP-, Evaluation Type: Evaluation A (Pre-1980)) “inactive; negative”; (Species/Cell Type: Saccharomyces cerevisiae, Assay Type: Mitotic recombination or gene conversion, Assay Code: YEH-, Evaluation Type: Evaluation A (Pre-1980)) “inactive; negative”. The mutagenic call is “active; positive” (Species/Cell Type: Salmonella typhimurium (one or more of the five standard strains: TA98, TA100, TA1535, TA1537, and TA1538), Assay Type: Histidine reverse gene mutation, Ames assay, Assay Code: SAL+*, Activation: With metabolic activation, Evaluation Type: Evaluation A (Pre-1980)); “active; positive” (Species/Cell Type: Salmonella typhimurium, Assay Type: Forward and reverse gene mutation, host-mediated assay, Assay Code: HMA+, Evaluation Type: Evaluation A (Pre-1980)); “active; positive” (Species/Cell Type: Syrian hamster embryo (SHE) cells, Assay Type: Cell transformation, clonal assay, Assay Code: CTC+, Evaluation Type: Evaluation A (Pre-1980)). The call under setting [3] was “active; positive”.

Regarding `Brc1ccc(C2CO2)cc1` (centres undefined), where the note is “Species/Cell Type: Escherichia coli WP2 UVRA, Assay Type: Tryptophan reverse gene mutation, Assay Code: WPU+D, Dose Response: With dose response, Evaluation Type: Evaluation A (Pre-1980)”, the mutagenic call was “active; positive”.

In the case of `Cc1cc2ccc(F)cc2c2ccc3ccccc3c12`, the mutagenic call under setting [5] is “no conclusion”.

As for `CC(C)NC(=O)/C=C/c1ccc([N+](=O)[O-])o1`, the mutagenic call runs as follows: under setting [6], “active; positive”; (Species/Cell Type: Neurospora crassa, Assay Type: Forward gene mutation, Assay Code: NEF+, Evaluation Type: Evaluation A (Pre-1980)) “active; positive”; (Species/Cell Type: Neurospora crassa, Assay Type: Reverse gene mutation, Assay Code: NER+, Evaluation Type: Evaluation A (Pre-1980)) “active; positive”; under setting [4], “active; positive”; under setting [7], “active; positive”.

On to `[Li+]`, for which the mutagenic call (Species/Cell Type: Bacillus subtilis (H17 vs M45), Assay Type: Rec-assay, spot test, DNA effects (bacterial DNA repair), Assay Code: REW-, Evaluation Type: Evaluation A (Pre-1980)) was “inactive; negative” and the mutagenic call under setting [8] was “inactive; negative”.

On to `NC(=O)N1c2ccccc2[C@H](O)[C@@H](O)c2ccccc21`, for which the mutagenic call is “active; positive” under setting [1] and “active; positive” under setting [2].

In the case of `CC(=O)O`, the mutagenic call runs as follows: (Species/Cell Type: Human lymphocytes, Assay Type: Sister-chromatid exchange (SCE) in vitro, Assay Code: SCL-, Evaluation Type: Evaluation A (Pre-1980)) “inactive; negative”; (Species/Cell Type: Human, Assay Type: Sister-chromatid exchange (SCE) in vitro, Assay Code: SC1-, Evaluation Type: Evaluation A (Pre-1980)) “inactive; negative”; (Species/Cell Type: Salmonella typhimurium (one or more of the five standard strains: TA98, TA100, TA1535, TA1537, and TA1538), Assay Type: Histidine reverse gene mutation, Ames assay, Assay Code: SAL-, Evaluation Type: Evaluation A (Pre-1980)) “inactive; negative”; under setting [8], “inactive; negative”.

For the molecule `CC(=O)OC[C@H]1O[C@@H](Oc2ccc3c(c2O)C(=O)c2ccccc2C3=O)[C@H](OC(C)=O)[C@@H](OC(C)=O)[C@@H]1OC(C)=O`, under setting [5], the mutagenic call is recorded as “no conclusion”.

Consider `Cc1c2ccccc2c(C)c2c1ccc1cccc(F)c12`, for which, under setting [9], the mutagenic call was “inactive; negative”.

`NC(=O)N/N=C(/CCN1CCCCC1)c1ccc([N+](=O)[O-])o1`: the mutagenic call by setting is: (Species/Cell Type: Escherichia coli WP2, Assay Type: Tryptophan reverse gene mutation, Assay Code: WP2+, Evaluation Type: Evaluation A (Pre-1980)) “active; positive”; (Species/Cell Type: Escherichia coli WP2 UVRA, Assay Type: Tryptophan reverse gene mutation, Assay Code: WPU+, Evaluation Type: Evaluation A (Pre-1980)) “active; positive”.

`Cc1c2c(c(CO)c3c1ccc1ccccc13)C=C[C@H](O)[C@H]2O`: the mutagenic call under setting [9] was “inactive; negative”.

As for `CCOC(=O)c1cc2cc3ccoc3cc2oc1=O`, under setting [2], the mutagenic call is “active; positive”.

As for `O=[N+]([O-])c1ccc(-c2nc(NCCO)c3ccccc3n2)s1`, the mutagenic call under setting [7] was “active; positive”.

For the molecule `OC[C@@H](O)C(O)[C@@H](O)CO` (some centres undefined), the mutagenic call was “inactive; negative” (Species/Cell Type: Human, Assay Type: Sister-chromatid exchange (SCE) in vitro, Assay Code: SC1-, Evaluation Type: Evaluation B (Post-1980)); “inactive; negative” (Species/Cell Type: Salmonella typhimurium, Assay Type: Forward and reverse gene mutation, body fluid assay, Assay Code: BFU-, Evaluation Type: Evaluation A (Pre-1980)); “inactive; negative” (Species/Cell Type: Salmonella typhimurium, Assay Type: Forward and reverse gene mutation, host-mediated assay, Assay Code: HMA-, Evaluation Type: Evaluation A (Pre-1980)).

Turning to `Cc1c2c(c(C)c3c1ccc1ccccc13)C=C[C@@H](O)[C@@H]2O`, the mutagenic call was “active; positive” under setting [6] and “active; positive” (Species/Cell Type: Mouse prostate cells, Assay Type: Cell transformation, Assay Code: CTM+D, Dose Response: With dose response, Evaluation Type: Evaluation A (Pre-1980)). For the same molecule, the call (Species/Cell Type: Nonhuman, Assay Code: CCGT, Evaluation Type: Evaluation A (Pre-1980)) is “no conclusion”.

Regarding `N#CC(Cl)Cl`, the mutagenic call is, setting by setting: (Species/Cell Type: Saccharomyces cerevisiae, Assay Type: Mitotic recombination or gene conversion, Assay Code: YEH+, Evaluation Type: Evaluation A (Pre-1980)) “active; positive”; under setting [7], “active; positive”.
